Data on 25 molecules can be found in patent US9428507B2, “Compounds for the treatment of malaria” (The Broad Institute, Inc., priority 2013, dated 2016).

The test system of one assay is Dd2 strain of P. falciparum. Briefly: Activity against the Dd2 strain of P. falciparum (SYBR Green I, 72-h incubation). The class given is cell-based. The following applies: Plasmodium falciparum, DD2, 72 h, read-out: EC^50 Dd2. A digest of the protocol: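 SYBR Green I signal (ex 485, em 530 nm) measured growth, read after 24 h dark staining in saponin/Triton lysis buffer. Before that, compound-exposed Dd2 cultures (1% parasitemia, 1.0% hematocrit, 0.125% DMSO) grew 72 h at 37° C in low-oxygen gas. Background control: 20 μM mefloquine.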
Regarding `COc1ccc(NC(=O)N2CCC3(CC2)CN(C(=O)C2CCC2)[C@H](CO)c2c3c3ccc(OC)cc3n2C)cc1` [Compound 86, (S)-2′-(cyclobutanecarbonyl)-1′-(hydroxymethyl)-7′-methoxy-N-(4-methoxyphenyl)-9′-methyl-1′,2′,3′,9′-tetrahydrospiro [piperidine-4,4′-pyrido[3,4-b]indole]-1-carboxamide], the EC50 came out at 0.096 µM.
Same read-out and setting: the same measure for `COc1ccc2c3c([nH]c2c1)[C@H](CO)N(Cc1ccc(Cl)cc1)CC31CCN(Cc2nccs2)CC1` [Compound 87, (R)-(2′-(4-chlorobenzyl)-7′-methoxy-1-(thiazol-2-ylmethyl)-1′,2′,3′,9′-tetrahydrospiro [piperidine-4,4′-pyrido[3,4-b]indol]-1′-yl)methanol]: 0.078 µM; for `COc1ccc2c3c([nH]c2c1)[C@H](CO)N(C(=O)CN(C)C)CC31CCN(CC2CCCCC2)CC1` [Compound 89, (R)-1-(1-(cyclohexylmethyl)-1′-(hydroxymethyl)-7′-methoxyspiro [piperidine-4,4′-pyrido[3,4-b]indol]-2′(1′ H,3′H,9′H)-yl)-2-(dimethylamino)ethanone]: 0.432 µM.
Same read-out and setting: next, `COc1ccc2c3c(n(C)c2c1)[C@@H](CO)N(C(=O)CN(C)C)CC31CCN(Cc2cccnc2)CC1` [Compound 90, (S)-2-(dimethylamino)-1-(1′-(hydroxymethyl)-7′-methoxy-9′-methyl-1-(pyridin-3-ylmethyl)spiro [piperidine-4,4′-pyrido[3,4-b]indol]-2′(1′H,3′H,9′H)-yl)ethanone]: 2.61 µM; `COc1ccc2c3c(n(C)c2c1)[C@H](CO)NCC31CCN(CC2CCCC2)CC1` [Compound 91, (R)-(1-(cyclopentylmethyl)-7′-methoxy-9′-methyl-1′,2′,3′,9′-tetrahydrospiro[piperidine-4,4′-pyrido[3,4-b]indol]-1′-yl)methanol]: 0.481 µM; `CCCN1CCC2(CC1)CN(Cc1ccccc1OC)[C@H](CO)c1c2c2ccc(OC)cc2n1C` [Compound 92, (S)-(7′-methoxy-2′-(2-methoxybenzyl)-9′-methyl-1-propyl-1′,2′,3′,9′-tetrahydrospiro [piperidine-4,4′-pyrido[3,4-b]indol]-1′-yl) methanol]: 0.681 µM.
Same read-out and setting: the same measure for `COc1ccc2c3c(n(C)c2c1)[C@@H](CO)N(C(=O)C1CC1)CC31CN(C(=O)Nc2cccc(F)c2)C1` [Compound 93, (S)-2′-(cyclopropanecarbonyl)-N-(3-fluorophenyl)-1′-(hydroxymethyl)-7′-methoxy-9′-methyl-1′,2′,3′,9′-tetrahydrospiro [azetidine-3,4′-pyrido[3,4-b]indole]-1-carboxamide]: 0.195 µM.
Turning to `COc1ccc2c3c([nH]c2c1)[C@@H](CO)N(Cc1ccccc1)CC31CCN(Cc2cncnc2)CC1` [Compound 94, (S)-(2′-benzyl-7′-methoxy-1-(pyrimidin-5-ylmethyl)-1′,2′,3′,9′-tetrahydrospiro [piperidine-4,4′-pyrido[3,4-b]indol]-1′-yl) methanol], the EC50 was 0.929 µM.
Still for that read-out and setting: the same measure for `COc1ccc2c3c(n(C)c2c1)[C@H](CO)N(CC1CC1)CC31CN(C(=O)c2ccc3c(c2)OCO3)C1` [Compound 95, (R)-benzo[d] [1,3]dioxol-5-yl(2′-(cyclopropylmethyl)-1′-(hydroxymethyl)-7′-methoxy-9′-methyl-1′,2′,3′,9′-tetrahydrospiro [azetidine-3,4′-pyrido[3,4-b]indol]-1-yl)methanone]: 1.26 µM.
Regarding `COc1ccc2c3c(n(C)c2c1)[C@H](CO)N(C(=O)Nc1ccc(F)cc1)CC31CCN(C)CC1` [Compound 96, (R)-N-(4-fluorophenyl)-1′-(hydroxymethyl)-7′-methoxy-1,9′-dimethyl-3′,9′-dihydrospiro[piperidine-4,4′-pyrido[3,4-b]indole]-2′(1′H)-carboxamide], the EC50 came out at 2.87 µM.
Same read-out and setting: next, `COc1ccc(CN2CC3(C2)CN(C(=O)CN(C)C)[C@H](CO)c2[nH]c4cc(OC)ccc4c23)cc1` [Compound 97, (S)-2-(dimethylamino)-1-(1′-(hydroxymethyl)-7′-methoxy-1-(4-methoxybenzyl)spiro[azetidine-3,4′-pyrido[3,4-b]indol]-2′(1′H,3′H,9′H)-yl)ethanone]: 1.64 µM.
As for `CCCC(=O)N1CCC2(CC1)CN(S(=O)(=O)c1ccc(C)cc1)[C@@H](CO)c1[nH]c3cc(OC)ccc3c12` [Compound 98, (R)-1-(1′-(hydroxymethyl)-7′-methoxy-2′-tosyl-1′,2′,3′,9′-tetrahydrospiro[piperidine-4,4′-pyrido[3,4-b]indol]-1-yl)butan-1-one], the EC50 stood at 0.098 µM.
For the molecule `COc1ccc2c3c(n(C)c2c1)[C@@H](CO)N(C(=O)C1CCCC1)CC31CN(C(=O)Nc2cccc(F)c2)C1` [Compound 99, (S)-2′-(cyclopentanecarbonyl)-N-(3-fluorophenyl)-1′-(hydroxymethyl)-7′-methoxy-9′-methyl-1′,2′,3′,9′-tetrahydrospiro [azetidine-3,4′-pyrido[3,4-b]indole]-1-carboxamide], the EC50 was found to be 1.88 µM.
As to `COc1ccc2c3c(n(C)c2c1)[C@@H](CO)N(C(=O)C1CCCC1)CC31CCN(C(=O)Nc2cccc(F)c2)CC1` [Compound 100, (S)-2′-(cyclopentanecarbonyl)-N-(3-fluorophenyl)-1′-(hydroxymethyl)-7′-methoxy-9′-methyl-1′,2′,3′,9′-tetrahydrospiro[piperidine-4,4′-pyrido[3,4-b]indole]-1-carboxamide], the EC50 worked out at 0.418 µM.
On the same count and under the same terms, next, `COc1ccc2c3c(n(C)c2c1)[C@@H](CO)N(C(=O)Nc1ccc(F)cc1)CC31CCN(Cc2ccccn2)CC1` [Compound 101, (S)-N-(4-fluorophenyl)-1′-(hydroxymethyl)-7′-methoxy-9′-methyl-1-(pyridin-2-ylmethyl)-3′,9′-dihydrospiro [piperidine-4,4′-pyrido[3,4-b]indole]-2′(1′H)-carboxamide]: 2.05 µM; `COc1ccc2c3c([nH]c2c1)[C@H](CO)NCC31CCN(C(=O)Nc2ccc3c(c2)OCO3)CC1` [Compound 102, (R)-N-(benzo[d] [1,3]dioxol-5-yl)-1′-(hydroxymethyl)-7′-methoxy-1′,2′,3′,9′-tetrahydrospiro [piperidine-4,4′-pyrido[3,4-b]indole]-1-carboxamide]: 0.49 µM; `COc1ccc2c3c([nH]c2c1)[C@H](CO)N(C(=O)C1CCCCC1)CC31CCN(Cc2nccs2)CC1` [Compound 103, (R)-cyclohexyl (1′-(hydroxymethyl)-7′-methoxy-1-(thiazol-2-ylmethyl)spiro[piperidine-4,4′-pyrido[3,4-b]indol]-2′(1′H,3′H,9′H)-yl)methanone]: 0.182 µM.
Same read-out and setting: the same measure for `COc1ccc2c3c([nH]c2c1)[C@H](CO)N(C(=O)C1CCOCC1)CC31CCN(Cc2nccs2)CC1` [Compound 104, (R)-(1′-(hydroxymethyl)-7′-methoxy-1-(thiazol-2-ylmethyl)spiro[piperidine-4,4′-pyrido[3,4-b]indol]-2′(1′H,3′H,9′H)-yl)(tetrahydro-2H-pyran-4-yl)methanone]: 0.467 µM; for `COc1ccc2c3c([nH]c2c1)[C@H](CO)N(C(=O)Cc1ccccc1)CC31CCN(C(=O)Nc2ccccc2F)CC1` [Compound 105, (R)-N-(2-fluorophenyl)-1′-(hydroxymethyl)-7′-methoxy-2′-(2-phenylacetyl)-1′,2′,3′,9′-tetrahydrospiro [piperidine-4,4′-pyrido[3,4-b]indole]-1-carboxamide]: 0.269 µM; for `COc1ccc2c3c(n(C)c2c1)[C@@H](CO)N(C(=O)Nc1ccc(F)cc1)CC31CCN(Cc2cccnc2)CC1` [Compound 106, (S)-N-(4-fluorophenyl)-1′-(hydroxymethyl)-7′-methoxy-9′-methyl-1-(pyridin-3-ylmethyl)-3′,9′-dihydrospiro [piperidine-4,4′-pyrido[3,4-b]indole]-2′(1′H)-carboxamide]: 0.727 µM.
As to `CCC(=O)N1CCC2(CC1)CN(Cc1cccc(OC)c1)[C@@H](CO)c1[nH]c3cc(OC)ccc3c12` [Compound 107, (R)-1-(1′-(hydroxymethyl)-7′-methoxy-2′-(3-methoxybenzyl)-1′,2′,3′,9′-tetrahydrospiro [piperidine-4,4′-pyrido[3,4-b]indol]-1-yl)propan-1-one], the EC50 was found to be 2.21 µM.
On the same count and under the same terms, next, `COc1ccc2c3c(n(C)c2c1)[C@@H](CO)N(C(=O)c1ccc(F)cc1)CC31CN(C(=O)Nc2ccc(F)cc2)C1` [Compound 108, (S)-2′-(4-fluorobenzoyl)-N-(4-fluorophenyl)-1′-(hydroxymethyl)-7′-methoxy-9′-methyl-1′,2′,3′,9′-tetrahydrospiro[azetidine-3,4′-pyrido[3,4-b]indole]-1-carboxamide]: 1.22 µM; `COc1ccc2c3c(n(C)c2c1)[C@@H](CO)N(CC1CCCCC1)CC31CCN(Cc2nccs2)CC1` [Compound 109, (S)-(2′-(cyclohexylmethyl)-7′-methoxy-9′-methyl-1-(thiazol-2-ylmethyl)-1′,2′,3′,9′-tetrahydrospiro [piperidine-4,4′-pyrido[3,4-b]indol]-1′-yl)methanol]: 1.03 µM.
`COc1ccc2c3c(n(C)c2c1)[C@@H](CO)N(C(=O)C1CCC1)CC31CN(C(=O)Nc2cccc(F)c2)C1` [Compound 110, (S)-2′-(cyclobutanecarbonyl)-N-(3-fluorophenyl)-1′-(hydroxymethyl)-7′-methoxy-9′-methyl-1′,2′,3′,9′-tetrahydrospiro [azetidine-3,4′-pyrido[3,4-b]indole]-1-carboxamide]: the EC50 was found to be 0.779 µM.

The same assay, now with this note: read-out: EC^50 Dd2.
Regarding `COc1ccc2c3c(n(C)c2c1)[C@H](CO)N(Cc1ccc(Cl)cc1)CC31CCN(CC2CC2)CC1` [Compound 88, (R)-(2′-(4-chlorobenzyl)-1-(cyclopropylmethyl)-7′-methoxy-9′-methyl-1′,2′,3′,9′-tetrahydrospiro [piperidine-4,4′-pyrido[3,4-b]indol]-1′-yl)methanol], the EC50 was 1.17 µM.
